Test results: patent publication US9051310B2, “Nicotinamide derivative or salt thereof” (FUJIFILM Corporation, priority 2011, dated 2015)

molecular target: T1, glutathione S-transferase (GST)-linked full-length human Syk protein (Homo sapiens, UniProt P43405); test: Syk enzyme assay; format: biochemical; conditions: 0.83 nM Syk, time-resolved fluorescence; read-out: IC50 of Syk-inhibitory activity
T1 construct: glutathione S-transferase (GST)-linked full-length human Syk protein; purchased Carna Biosciences; host or cells: Baculovirus expression system
Procedure, shortened: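 Phosphotyrosine on a biotin-peptide substrate (0.5 μM) was read by time-resolved fluorescence at 615 and 665 nm with Eu-anti-pTyr antibody and APC-streptavidin after 1 h EDTA stop.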

| IC50 [nM] | Compound |
| --- | --- |
| 10 to 50 | CC[C@@H](Nc1nc(Nc2cnc(OC)c(F)c2)c(C(N)=O)cc1F)[C@H](C)N [Example 2-64, 6-(((2S,3R)-2-aminopentan-3-yl)amino)-5-fluoro-2-((5-fluoro-6-methoxypyridin-3-yl)amino)nicotinamide] |
| 50 to 100 | Cc1ncc(Nc2nc(N[C@@H](CN)Cc3ccccc3)c(F)cc2C(N)=O)cc1-n1nccn1 [Example 2-364, (R)-6-((1-amino-3-phenylpropan-2-yl)amino)-5-fluoro-2-((6-methyl-5-(2H-1,2,3-triazol-2-yl)pyridin-3-yl)amino)nicotinamide] |
| < 10 | CC[C@@H](Nc1nc(Nc2ccc3c(c2)c(N2CCCC2)nn3C)c(C(N)=O)cc1F)[C@H](C)N [Example 2-429, 6-(((2S,3R)-2-aminopentan-3-yl)amino)-5-fluoro-2-((1-methyl-3-(pyrrolidin-1-yl)-1H-indazol-5-yl)amino)nicotinamide] |
| < 10 | CC[C@@H](Nc1nc(Nc2cncc3c2cnn3CC(F)F)c(C(N)=O)cc1F)[C@H](C)N [Example 2-396, 6-(((2S,3R)-2-aminopentan-3-yl)amino)-2-((1-(2,2-difluoroethyl)-1H-pyrazolo[3,4-c]pyridin-4-yl)amino)-5-fluoronicotinamide] |
| 50 to 100 | Cc1nn(-c2cncc(Nc3nc(N[C@H]4CCCC[C@H]4N)c(F)cc3C(N)=O)c2)nc1C (stereo in doubt) [Example 2-533, 6-(((1S,2R)-2-aminocyclohexyl)amino)-2-((5-(4,5-dimethyl-2H-1,2,3-triazol-2-yl)pyridin-3-yl)amino)-5-fluoronicotinamide] |
| 50 to 100 | CC(C)[C@@H](Nc1nc(Nc2ccc3c(cnn3C)c2)c(C(N)=O)cc1F)[C@H](C)N [Example 2-104, 6-(((2S,3R)-2-amino-4-methylpentan-3-yl)amino)-5-fluoro-2-((1-methyl-1H-indazol-5-yl)amino)nicotinamide] |
| 50 to 100 | CC[C@@H](Nc1nc(Nc2cnc(OCCOC)c(-n3nccn3)c2)c(C(N)=O)cc1F)[C@H](C)N [Example 2-202, 6-(((2S,3R)-2-aminopentan-3-yl)amino)-5-fluoro-2-((6-(2-methoxyethoxy)-5-(2H-1,2,3-triazol-2-yl)pyridin-3-yl)amino)nicotinamide] |
| 10 to 50 | COCCn1nc(N(C)C)c2cc(Nc3nc(N[C@@H]4CCCC[C@@H]4N)c(F)cc3C(N)=O)ccc21 [Example 2-500, 6-(((1R,2S)-2-aminocyclohexyl)amino)-2-((3-(dimethylamino)-1-(2-methoxyethyl)-1H-indazol-5-yl)amino)-5-fluoronicotinamide] |
| 10 to 50 | CCC[C@@H](Nc1nc(Nc2ccc3c(c2)c(N(C)C)nn3CCOC)c(C(N)=O)cc1F)[C@H](C)N [Example 2-503, 6-(((2S,3R)-2-aminohexan-3-yl)amino)-2-((3-(dimethylamino)-1-(2-methoxyethyl)-1H-indazol-5-yl)amino)-5-fluoronicotinamide] |
| < 10 | COCCn1nc(OC)c2cc(Nc3nc(N[C@H](C4CCC4)[C@H](C)N)c(F)cc3C(N)=O)ccc21 [Example 2-540] |
| 50 to 100 | COC[C@@H](Nc1nc(Nc2cnc3c(c2)c(OC)nn3C)c(C(N)=O)cc1F)[C@H](C)N [Example 2-256, 6-(((2S,3S)-3-amino-1-methoxybutan-2-yl)amino)-5-fluoro-2-((3-methoxy-1-methyl-1H-pyrazolo[3,4-b]pyridin-5-yl)amino)nicotinamide] |
| 10 to 50 | CC[C@@H](Nc1nc(Nc2cnc3c(c2)c(C)nn3C)c(C(N)=O)cc1F)[C@H](C)N [Example 2-241, 6-(((2S,3R)-2-aminopentan-3-yl)amino)-2-((1,3-dimethyl-1H-pyrazolo[3,4-b]pyridin-5-yl)amino)-5-fluoronicotinamide] |
| 10 to 50 | CC(C)[C@@H](Nc1nc(Nc2cncc(C3CC3)c2)c(C(N)=O)cc1F)[C@H](C)N [Example 2-111, 6-(((2S,3R)-2-amino-4-methylpentan-3-yl)amino)-2-((5-cyclopropylpyridin-3-yl)amino)-5-fluoronicotinamide] |
| < 10 | C[C@H](N)[C@H](Nc1nc(Nc2ccc3c(c2)c(N(C)C)nn3C)c(C(N)=O)cc1F)c1cccc(F)c1 [Example 2-452, 6-(((1R,2S)-2-amino-1-(3-fluorophenyl)propyl)amino)-2-((3-(dimethylamino)-1-methyl-1H-indazol-5-yl)amino)-5-fluoronicotinamide] |
| < 10 | Cc1ncc(Nc2nc(N[C@H](c3cccc(F)c3)[C@H](C)N)c(F)cc2C(N)=O)cc1F [Example 2-453, 6-(((1R,2S)-2-amino-1-(3-fluorophenyl)propyl)amino)-5-fluoro-2-((5-fluoro-6-methylpyridin-3-yl)amino)nicotinamide] |
| < 10 | CC[C@@H](Nc1nc(Nc2ccc3c(c2)c(OC)nn3CC(F)F)c(C(N)=O)cc1F)[C@H](C)N [Example 2-55, 6-(((2S,3R)-2-aminopentan-3-yl)amino)-2-((1-(2,2-difluoroethyl)-3-methoxy-1H-indazol-5-yl)amino)-5-fluoronicotinainide] |

| IC50 [nM] | Compound |
| --- | --- |
| < 10 | CC[C@H](N)[C@H](Nc1nc(Nc2cccc3c2cnn3CC(F)F)c(C(N)=O)cc1F)C1CC1 [Example 2-547, 6-(((1R,2S)-2-amino-1-cyclopropylbutyl)amino)-2-((1-(2,2-difluoroethyl)-1H-indazol-4-yl)amino)-5-fluoronicotinamide] |
| < 10 | CC[C@H](N)[C@H](Nc1nc(Nc2cc(F)c3c(c2)c(N(C)C)nn3C)c(C(N)=O)cc1F)C1CC1 [Example 2-383, 6-(((1R,2S)-2-amino-1-cyclopropylbutyl)amino)-2-((3-(dimethylamino)-7-fluoro-1-methyl-1H-indazol-5-yl)amino)-5-fluoronicotinamide] |
| < 10 | Cc1cnn(-c2cncc(Nc3nc(N[C@@H]4CCOC[C@@H]4N)c(F)cc3C(N)=O)c2)c1 [Example 2-526, 6-(((3R,4R)-3-aminotetrahydro-2H-pyran-4-yl)amino)-5-fluoro-2-((5-(4-methyl-1H-pyrazol-1-yl)pyridin-3-yl)amino)nicotinamide] |
| 10 to 50 | CCC[C@@H](Nc1nc(Nc2cnc(OCCOC)c(-n3nccn3)c2)c(C(N)=O)cc1F)[C@H](C)N [Example 2-203, 6-(((2S,3R)-2-aminohexan-3-yl)amino)-5-fluoro-2-((6-(2-methoxyethoxy)-5-(2H-1,2,3-triazol-2-yl)pyridin-3-yl)amino)nicotinamide] |
| < 10 | C[C@H](N)[C@H](Nc1nc(Nc2ccc3c(c2)c(OC(F)F)nn3C)c(C(N)=O)cc1F)C1CCC1 [Example 2-350, 6-(((1R,2S)-2-amino-1-cyclobutylpropyl)amino)-2-((3-(difluoromethoxy)-1-methyl-1H-indazol-5-yl)amino)-5-fluoronicotinamide] |
| < 10 | CC(C)Oc1cccc(Nc2nc(N[C@@H]3CCCC[C@@H]3N)c(F)cc2C(N)=O)c1 [Example 2-446, 6-(((1R,2S)-2-aminocyclohexyl)amino)-5-fluoro-2-((3-isopropoxyphenyl)amino) nicotinamide] |
| 10 to 50 | CC[C@H](N)[C@H](Nc1nc(Nc2cc(OC)cc(OC)c2)c(C(N)=O)cc1F)C1CC1 [Example 2-361, 6-(((1R,2S)-2-amino-1-cyclopropylbutyl)amino)-2-((3,5-dimethoxyphenyl)amino)-5-fluoronicotinamide] |
| < 10 | Cc1cnn(-c2cncc(Nc3nc(N[C@@H](CN)CC(C)C)c(F)cc3C(N)=O)c2)c1 [Example 2-524, (R)-6-((1-amino-4-methylpentan-2-yl)amino)-5-fluoro-2-((5-(4-methyl-1H-pyrazol-1-yl)pyridin-3-yl)amino)nicotinamide] |
| < 10 | C[C@H](N)[C@H](Nc1nc(Nc2cncc3c2cnn3CC(F)F)c(C(N)=O)cc1F)C1CCC1 [Example 2-401, 6-(((1R,2S)-2-amino-1-cyclobutylpropyl)amino)-2-((1-(2,2-difluoroethyl)-1H-pyrazolo[3,4-c]pyridin-4-yl)amino)-5-fluoronicotinamide] |
| < 10 | CC[C@H](N)[C@@H](C)Nc1nc(Nc2ccc3c(c2)c(OC(F)F)nn3C)c(C(N)=O)cc1F [Example 2-351, 6-(((2R,3S)-3-aminopentan-2-yl)amino)-2-((3-(difluoromethoxy)-1-methyl-1H-indazol-5-yl)amino)-5-fluoronicotinamide] |
| 50 to 100 | CC[C@H](N)[C@@H](C)Nc1nc(Nc2ccc3c(c2)c(N(C)C)nn3CCOC)c(C(N)=O)cc1F [Example 2-507, 6-(((2R,3S)-3-aminopentan-2-yl)amino)-2-((3-(dimethylamino)-1-(2-methoxyethyl)-1H-indazol-5-yl)amino)-5-fluoronicotinamide] |
| 50 to 100 | CC[C@@H](Nc1nc(Nc2ccc3c(c2)c(NC)nn3C)c(C(N)=O)cc1F)[C@H](C)N [Example 2-497, 6-(((2S,3R)-2-aminopentan-3-yl)amino)-5-fluoro-2-((1-methyl-3-(methylamino)-1H-indazol-5-yl)amino)nicotinamide] |
| < 10 | CCC[C@@H](Nc1nc(Nc2cnc3c(c2)c(N(C)C)nn3C)c(C(N)=O)cc1F)[C@H](C)N [Example 2-289, 6-(((2S,3R)-2-aminohexan-3-yl)amino)-2-((3-(dimethylamino)-1-methyl-1H-pyrazolo[3,4-b]pyridin-5-yl)amino)-5-fluoronicotinamide] |
| 10 to 50 | CN(C)c1nn(C)c2ccc(Nc3nc(N[C@@H](CN)Cc4ccccc4)c(F)cc3C(N)=O)cc12 [Example 2-421, (R)-6-((1-amino-3-phenylpropan-2-yl)amino)-2-((3-(dimethylamino)-1-methyl-1H-indazol-5-yl)amino)-5-fluoronicotinamide] |
| < 10 | COC[C@@H](Nc1nc(Nc2ccc3c(c2)c(N(C)C)nn3C)c(C(N)=O)cc1F)[C@H](C)N [Example 2-120, 6-(((2S,3S)-3-amino-1-methoxybutan-2-yl)amino)-2-((3-(dimethylamino)-1-methyl-1H-indazol-5-yl)amino)-5-fluoronicotinamide] |
